This note sets out measurements from ChEMBL document CHEMBL1201862, “PubChem BioAssay data set” (2004).

Experiment in all cases: inhibition of tumour cell growth, NCI panel, 48 h
Experiment [1] relates to Hs-578T.
The test system of experiment [2] is UACC-62.
Experiment [3] relates to SNB-19.
Experiment [4] concerns HCT-15.
The subject of experiment [5] is SF-295.
In experiment [6] the test system is SK-MEL-28.
The test system of experiment [7] is OVCAR-5.
The test system of experiment [8] is OVCAR-4.
For experiment [9], the system named is Malme-3M.
Experiment [10] concerns EKVX.
In experiment [11] the test system is OVCAR-8.
Experiment [12] concerns CAKI-1.
The subject of experiment [13] is HT-29.
In experiment [14] the test system is DU-145.
Experiment [15] has as its system NCI-H226.
The test system of experiment [16] is SR.
For experiment [17], the system named is NCI-H460.
Experiment [18] deals with NCI-H23.

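Tested at 5 concentrations; 48 h exposure; 96-well plates; endpoints linearly interpolated, else capped at highest concentration. GI50: concentration for 50% inhibition of growth.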 Active and inactive are the calls of the source. Cut-off read from the data, not from the text of the source: active = GI50 up to about 1.1 µM and inactive = higher.

With `Cn1c(=O)c2nc(CSCc3ccccc3)[nH]c2n(C)c1=O`, the GI50 in experiment [1] is > 100 µM (inactive); in experiment [2] it was > 100 µM (inactive); in [3], > 100 µM (inactive); in experiment [4] it was over 100 µM; in experiment [5] it was 85.7 µM (inactive); in [6] it was > 100 µM (inactive). In addition, the GI50 was > 100 µM (inactive) in [7]; > 100 µM (inactive) in experiment [8]; > 100 µM (inactive) in experiment [9]; 24.8 µM (inactive) in experiment [10]; > 100 µM (inactive) in experiment [11]; > 100 µM (inactive) in experiment [12]. For the same compound, the GI50 in experiment [13] is 71.4 µM (inactive); in experiment [14], > 100 µM (inactive); in [15] it was > 100 µM (inactive); in [16], > 100 µM (inactive); in experiment [17], > 100 µM (inactive); in experiment [18] it was > 100 µM (inactive).

Take `O=c1c2ccccc2sc2cccc(NCCCN3CCN(CCCNc4cccc5sc6ccccc6c(=O)c45)CC3)c12`: the GI50 in [1] was 52.7 µM (inactive); in [2] it was 64.7 µM (inactive); in experiment [3], > 100 µM (inactive); in experiment [4] it was over 100 µM; in [5], > 100 µM (inactive); in [6], > 100 µM (inactive). Moreover, the GI50 in [7], in experiment [8], in experiment [9], in experiment [10], in experiment [12] and in experiment [13] was > 100 µM (inactive) throughout. Moreover, the GI50 in experiment [14], in [15], in experiment [16], in experiment [17] and in experiment [18] was > 100 µM (inactive) in each case.

As to `Cc1cc(=O)n2nc(SCc3ccccc3)sc2n1`, the GI50 in [1] is 25.4 µM (inactive); in [2], 28.4 µM (inactive); in experiment [3] it was > 100 µM (inactive); in experiment [4], over 100 µM; in experiment [5], > 100 µM (inactive); in experiment [6] it was > 100 µM (inactive). Further, the GI50 in [7], in experiment [8], in [9], in [11], in experiment [13] and in experiment [14] was > 100 µM (inactive) throughout. For the same compound, the GI50 in experiment [15], in experiment [16], in experiment [17] and in experiment [18] was > 100 µM (inactive) throughout.

As to `CC1=NN(c2cccc(Cl)c2)C2(SCC(=O)N2c2nc3ccccc3s2)/C1=C\c1ccc(Cl)cc1` (configuration not stated), the GI50 in [1] was 19.4 µM (inactive); in experiment [4] it was 13.9 µM; in experiment [5], 17 µM (inactive); in [6], 24.5 µM (inactive); in experiment [7], 20.2 µM (inactive); in [8] it was 17.3 µM (inactive). For the same compound, the GI50 in experiment [10] was 33.5 µM (inactive); in experiment [11], 18.9 µM (inactive); in experiment [12], 18.3 µM (inactive); in experiment [13], 19.4 µM (inactive); in experiment [14], 18.4 µM (inactive); in [15], 23.8 µM (inactive). Moreover, the GI50 was 2.81 µM (inactive) in experiment [16], 15.8 µM (inactive) in experiment [17] and 18.4 µM (inactive) in experiment [18].

With `Cc1ccc2c(c1C)CC1(Cc3ccc(C)c(C)c3C1=O)C2=O` (configuration not stated), the GI50 in experiment [1] was 91.8 µM (inactive); in experiment [2], > 100 µM (inactive); in experiment [3], 59.6 µM (inactive); in experiment [4] it was over 100 µM; in experiment [5], 30.3 µM (inactive); in experiment [6], > 100 µM (inactive). For the same compound, the GI50 in [7] was > 100 µM (inactive); in experiment [8] it was 33.7 µM (inactive); in [9] it was > 100 µM (inactive); in experiment [10] it was 44.2 µM (inactive); in experiment [11], 61.5 µM (inactive); in experiment [12], 44.2 µM (inactive). Moreover, the GI50 was > 100 µM (inactive) in experiment [14], 52.1 µM (inactive) in experiment [15], > 100 µM (inactive) in [16] and > 100 µM (inactive) in experiment [17].

In the case of `CC(=O)N1N=C(c2ccc3ccccc3c2O)CC1c1ccc(N(C)C)cc1` (configuration not stated), the GI50 was > 100 µM (inactive) in experiment [1]; > 100 µM (inactive) in [2]; over 100 µM in [4]; > 100 µM (inactive) in experiment [5]; > 100 µM (inactive) in [6]; > 100 µM (inactive) in experiment [7]. Moreover, the GI50 in experiment [8], in experiment [9], in experiment [11], in experiment [12], in experiment [13] and in experiment [14] was > 100 µM (inactive) in each case. In addition, the GI50 is > 100 µM (inactive) in experiment [15], 10.9 µM (inactive) in experiment [16], > 100 µM (inactive) in experiment [17] and > 100 µM (inactive) in experiment [18].

With `Cc1cn(CCCCOC(=O)NC(CCCNC(=N)N)C(=O)O)c(=O)[nH]c1=O` (configuration not stated), the GI50 was > 100 µM (inactive) in [1]; > 100 µM (inactive) in [2]; > 100 µM (inactive) in experiment [3]; over 100 µM in experiment [4]; > 100 µM (inactive) in experiment [5]; > 100 µM (inactive) in [6]. Also, the GI50 in experiment [7], in experiment [8], in experiment [10], in experiment [11], in experiment [12] and in experiment [13] was > 100 µM (inactive) in each case. The GI50 in [14], in [15], in experiment [16], in experiment [17] and in experiment [18] was > 100 µM (inactive) in each case.

`OC1CC2CCCN(CCc3c1[nH]c1ccccc31)C2` (configuration not stated): the GI50 in [1] was > 100 µM (inactive); in experiment [2] it was 86.7 µM (inactive); in experiment [3], > 100 µM (inactive); in experiment [4], over 100 µM; in experiment [5] it was > 100 µM (inactive); in experiment [6], > 100 µM (inactive). The GI50 in experiment [8], in experiment [9], in experiment [11], in experiment [12], in experiment [13] and in experiment [14] was > 100 µM (inactive) each time. For the same compound, the GI50 in experiment [15] was > 100 µM (inactive); in experiment [16], 97.1 µM (inactive); in experiment [17] it was > 100 µM (inactive); in experiment [18] it was > 100 µM (inactive).

Consider `CC(=O)/C=c1\[nH]/c(=C\C=C\c2ccccc2)c(=O)n1/C=C1\C(=O)Oc2ccccc2C1=O`, for which the GI50 in experiment [1] was > 100 µM (inactive); in experiment [2], > 100 µM (inactive); in [3], > 100 µM (inactive); in experiment [4], over 100 µM; in [6] it was > 100 µM (inactive); in experiment [7], > 100 µM (inactive). For the same compound, the GI50 is > 100 µM (inactive) in experiment [8]; > 100 µM (inactive) in experiment [9]; 40.6 µM (inactive) in experiment [10]; > 100 µM (inactive) in [11]; > 100 µM (inactive) in experiment [12]; > 100 µM (inactive) in [13]. Also, the GI50 in [14], in experiment [15], in experiment [16] and in experiment [18] was > 100 µM (inactive) in each case.

Regarding `O=C1Nc2ccc(Br)cc2/C1=N/c1ccc(Cl)cc1`, the GI50 in experiment [1] is 33.6 µM (inactive); in [2], 0.237 µM (active); in [3] it was 28 µM (inactive); in [4] it was 11.1 µM; in experiment [5], 3.63 µM (inactive); in [6] it was 23.3 µM (inactive). The GI50 was 18.2 µM (inactive) in experiment [7]; 24.8 µM (inactive) in [9]; 15.9 µM (inactive) in [10]; 11.7 µM (inactive) in [11]; 7.1 µM (inactive) in [12]; 12.1 µM (inactive) in [13]. Besides, the GI50 in experiment [14] was 47.2 µM (inactive); in experiment [15] it was 23.4 µM (inactive); in experiment [16], 6.21 µM (inactive); in experiment [17], 14.4 µM (inactive); in experiment [18], 30.2 µM (inactive).

Take `Cn1c2c(c3ccccc31)CCN1C(=O)CCC21` (configuration not stated): the GI50 in [1] was > 10 µM (inactive); in experiment [3], > 10 µM (inactive); in experiment [4], over 10 µM; in [5] it was > 10 µM (inactive); in experiment [6], > 10 µM (inactive); in experiment [7], > 10 µM (inactive). The GI50 in [8], in experiment [9], in experiment [10], in experiment [11], in experiment [12] and in [13] was > 10 µM (inactive) each time. For the same compound, the GI50 in experiment [14], in [15], in [16], in experiment [17] and in [18] was > 10 µM (inactive) throughout.

For `Nc1cc(F)ccc1CC(=O)O`, the GI50 is > 100 µM (inactive) in experiment [1]; > 100 µM (inactive) in experiment [2]; > 100 µM (inactive) in experiment [3]; over 100 µM in experiment [4]; > 100 µM (inactive) in [5]; > 100 µM (inactive) in [6]. Also, the GI50 in [7], in experiment [9], in experiment [10], in [11], in experiment [12] and in [13] was > 100 µM (inactive) each time. Also, the GI50 in experiment [14], in experiment [15], in experiment [16] and in [18] was > 100 µM (inactive) in each case.
